From patent US6506799B1, “Methods of treating cardiovascular diseases, dyslipidemia, dyslipoproteinemia, and hypertension with ether compounds” (Esperion Therapeutics, Inc., priority 1999, dated 2003)

Experiments:
[1] = tested on: chow fed male Sprague-Dawley rats; test: Serum lipids, apolipoproteins and weight gain in chow fed male Sprague-Dawley rats after seven days of treatment; type: in vivo, rat
Experimental: Illustrative compounds of the invention were administered daily at a dose of 100 mg/kg to chow fed male Sprague-Dawley rats for seven days in the morning by oral gavage in 1.5% carboxymethylcellulose/0.2% Tween-20 (dosing vehicle). Animals were weighed daily. Animals were allowed free access to rodent chow and water throughout the study. After the seventh dose, animals were sacrificed in the evening and blood serum was assayed for lipoprotein cholesterol profiles, serum triglycerides, total cholesterol VLDL, LDL, and HDL cholesterol, and the ratio of HDL cholesterol to that of VLDL plus LDL cholesterol, apolipoproteins A-I, C-II, C-III, and E by immunoelectrophoresis, and percent weight gain.
The five compounds were tested in two separate experiments. In each experiment, the experimental data were normalized against a control group of rats which received the dosing vehicle alone.

[2] = tested on: chow fed obese female Zucker rats; test: Experiments B, C, D, E: serum lipids, glucose, insulin, body and liver weight in obese female Zucker rats, 14 days; type: in vivo, rat; conditions: for Body Weight Gain (% of Pretreatment) / HDL-Cholesterol (% of Pretreatment) / Non HDL-Cholesterol (% of Pretreatment) / Triglycerides (% of Pretreatment): 14 days
Experimental: In a number of different experiments, illustrative compounds of the invention and troglitazone were administered daily at various doses to 10-week old chow fed obese female Zucker rats for 14 days in the morning by oral gavage in 1.5% carboxymethylcellulose/0.2% Tween-20 (dosing vehicle). Animals were weighed daily. Animals were allowed free access to rodent chow and water throughout the study. Blood glucose was determined after a 6-hour fast in the afternoon without anesthesia from a tail vein. Serum was also prepared from a blood sample subsequently obtained from the orbital venous plexus (with O2/CO2 anesthesia) prior to and after one week treatment and used lipid and insulin determinations. At two weeks, blood glucose was again determined after a 6-hour fast without anesthesia from a tail vein. Soon thereafter, animals were sacrificed by CO2 inhalation in the evening and cardiac blood serum was collected and assessed for various lipids and insulin. Body weight was determined daily prior to dosing and at the time of euthanasia.

female obese Zucker rats = test: Experiment A: serum lipids, glucose, non-esterified fatty acids and weight gain in obese female Zucker rats after seven days; type: in vivo, rat; conditions: 86 mg/kg
Experimental: Dosing vehicle, Compound A (86 mg/kg of body weight) or troglitazone (120 mg/kg of body weight) was administered to eight week old female obese Zucker rats daily for seven days in the morning by oral gavage in 1.5% carboxymethylcellulose/0.2% Tween-20. Troglitazone was obtained commercially. Finely crushed tablets were suspended in vehicle for dosing. Orbital blood samples were obtained following a six-hour fast prior to the initial dose and also following the seventh dose.
Blood serum was assayed for total cholesterol and triglycerides (FIG. 5), lipoprotein cholesterol profiles (FIG. 6), VLDL plus LDL cholesterol combined (also referred to as apo B containing lipoprotein cholesterol or non-HDL cholesterol), HDL cholesterol, and the ratio of HDL cholesterol to that of VLDL plus LDL cholesterol (FIG. 7), serum glucose, and non-esterified fatty acids (FIG. 8), and percent weight gain (FIG. 9). […] In particular, Compound A caused a marked elevation in HDL cholesterol after one week of treatment. Using the serum total cholesterol values (FIG. 5A) and the lipoprotein cholesterol distribution (FIG. 6), the amount of cholesterol associated with non-HDL (i.e., VLDL plus LDL) and HDL were determined (FIG. 7). […] In contrast, troglitazone reduced non-HDL and HDL cholesterol by 67% and 4%, respectively.

[3] = tested on: LDL receptor deficient mice; test: Lipoprotein cholesterol profile in LDL receptor-deficient mice; type: in vivo; conditions: 300 mg/kg/day, chow-fed female mice
Excerpt: The effect of Compound A on LDL levels in a murine model of homozygous familial hypercholesterolemia (Ishibashi et al., 1993, J. Clin. Invest. 92:883-893; Ishibashi et al., 1994, J. Clin. Invest. 93:1885-1893) was studied. LDL receptor-deficient mice have elevated LDL cholesterol relative to wild type mice when fed a chow diet. When fed cholesterol-enriched diets, these mice develop atherosclerosis.

[4] = 100 mg/kg, 7 days, compared to control, FIG. 3
[5] = 100 mg/kg, 7 days, vs vehicle, FIG. 2
[6] = 100 mg/kg/day oral gavage, 7 days, normalized against vehicle control
[7] = Experiment C, 100 mg/kg, after two weeks of treatment

- serum glucose (female obese Zucker rats; one week): did not induce a hypoglycemic state
Compound: CC(C)(CO)CCCCOCCCCC(C)(C)CO [Compound A, 6-(6-hydroxy-5,5-dimethylhexyloxy)-2,2-dimethyl-hexan-1-ol]
- elevation of apolipoprotein A-I [1, 4]: 16%
- elevation of apolipoprotein E [1, 4]: 46%
- reduction of apolipoprotein C-II [1, 4]: 20%
- reduction of apolipoprotein C-III [1, 4]: 16%
- ratio of HDL to non-HDL cholesterol (VLDL plus LDL) ([1]; 100 mg/kg, 7 days, control 2.6±0.2): 6.2±1.0
- improvement in the ratio of HDL to non-HDL cholesterol ([1]; 100 mg/kg, 7 days, vs control): 2.44 fold
- change in VLDL cholesterol ([1]; 100 mg/kg, 7 days, vs vehicle): no change
- elevation in HDL cholesterol ([1]; 100 mg/kg, 7 days, vs vehicle): 49%
- reduction in LDL cholesterol ([1]; 100 mg/kg, 7 days, vs vehicle): 41%
- elevation of total serum cholesterol [1, 5]: 26%
- reduction of serum triglycerides [1, 5]: 31%
- percentage body weight gain ([1]; 100 mg/kg, after seven days, control 68.3±1.2%): 63.4±1.9%
- HDL-Cholesterol (% change) [1, 6]: +21.1 % change
- LDL-Cholesterol (% change) [1, 6]: −27.7 % change
- Triglyceride (% change) [1, 6]: +7.6 % change
- Body Weight Gain (% of Pretreatment) ([2]; Experiment C, 1 mg/kg/day): +16.7 % of Pretreatment
- HDL-Cholesterol (% of Pretreatment) ([2]; Experiment C, 1 mg/kg/day): −24.1 % of Pretreatment
- Non HDL-Cholesterol (% of Pretreatment) ([2]; Experiment C, 1 mg/kg/day): −25.6 % of Pretreatment
- Triglycerides (% of Pretreatment) ([2]; Experiment C, 1 mg/kg/day): −8.8 % of Pretreatment
- Body Weight Gain (% of Pretreatment) ([2]; Experiment C, 3 mg/kg/day): +17.5 % of Pretreatment
- HDL-Cholesterol (% of Pretreatment) ([2]; Experiment C, 3 mg/kg/day): −3.7 % of Pretreatment
- Non HDL-Cholesterol (% of Pretreatment) ([2]; Experiment C, 3 mg/kg/day): −29.6 % of Pretreatment
- Triglycerides (% of Pretreatment) ([2]; Experiment C, 3 mg/kg/day): −24.6 % of Pretreatment
- Body Weight Gain (% of Pretreatment) ([2]; Experiment C, 10 mg/kg/day): +10.7 % of Pretreatment
- HDL-Cholesterol (% of Pretreatment) ([2]; Experiment C, 10 mg/kg/day): +154.4 % of Pretreatment
- Non HDL-Cholesterol (% of Pretreatment) ([2]; Experiment C, 10 mg/kg/day): −14.2 % of Pretreatment
- Triglycerides (% of Pretreatment) ([2]; Experiment C, 10 mg/kg/day): −50.9 % of Pretreatment
- Body Weight Gain (% of Pretreatment) ([2]; Experiment C, 30 mg/kg/day): +11.3 % of Pretreatment
- HDL-Cholesterol (% of Pretreatment) ([2]; Experiment C, 30 mg/kg/day): +369.7 % of Pretreatment
- Non HDL-Cholesterol (% of Pretreatment) ([2]; Experiment C, 30 mg/kg/day): +38.4 % of Pretreatment
- Triglycerides (% of Pretreatment) ([2]; Experiment C, 30 mg/kg/day): −42.0 % of Pretreatment
- glucose to insulin ratio ([2]; Experiment C, 100 mg/kg): reduced
- Body Weight Gain (% of Pretreatment) ([2]; Experiment C, 100 mg/kg/day): +9.2 % of Pretreatment
- HDL-Cholesterol (% of Pretreatment) ([2]; Experiment C, 100 mg/kg/day): +801.8 % of Pretreatment
- Non HDL-Cholesterol (% of Pretreatment) ([2]; Experiment C, 100 mg/kg/day): +45.1 % of Pretreatment
- Triglycerides (% of Pretreatment) ([2]; Experiment C, 100 mg/kg/day): −57.0 % of Pretreatment
- HDL-cholesterol increase [2, 7]: 802%
- elevation of HDL-cholesterol [2, 7]: 9 fold
- blood glucose ([2]; Experiment C, 100 mg/kg, fasted): tendency to lower blood glucose
- glucose to insulin ratio ([2]; Experiment C, 1 and 3 mg/kg, two weeks): declined by approximately ⅓ to ½
- weight gain ([2]; Experiment C, 10, 30 and 100 mg/kg, after one and two weeks): markedly reduced
- glucose to insulin ratio ([2]; Experiment C, 10 and 30 mg/kg): sustained at pretreatment levels
- minimal effective dose for reduction in serum triglycerides ([2]; Experiment C, FIG. 10): approximately 3 mg/kg
- dose at which elevation of serum total cholesterol begins ([2]; Experiment C, FIG. 11): approximately 10 mg/kg/day
- percent liver to body weight ([2]; Experiment C, after two weeks of treatment, FIG. 16): increased in a dose dependent manner
- serum triglyceride levels ([2]; Experiment C, doses 1-100 mg/kg, FIG. 10): reduced serum triglyceride levels at all doses
- rise in serum insulin ([2]; Experiment C, higher doses (10, 30, 100 mg/kg)): largely curtailed or minimized
- Body Weight Gain (% of Pretreatment) ([2]; Experiment D, 10 mg/kg/day): +2.2 % of Pretreatment
- HDL-Cholesterol (% of Pretreatment) ([2]; Experiment D, 10 mg/kg/day): +133.9 % of Pretreatment
- Non HDL-Cholesterol (% of Pretreatment) ([2]; Experiment D, 10 mg/kg/day): +49.3 % of Pretreatment
- Triglycerides (% of Pretreatment) ([2]; Experiment D, 10 mg/kg/day): −11.1 % of Pretreatment
- Body Weight Gain (% of Pretreatment) ([2]; Experiment D, 100 mg/kg/day): +4.5 % of Pretreatment
- HDL-Cholesterol (% of Pretreatment) ([2]; Experiment D, 100 mg/kg/day): +187.9 % of Pretreatment
- Non HDL-Cholesterol (% of Pretreatment) ([2]; Experiment D, 100 mg/kg/day): +7.5 % of Pretreatment
- Triglycerides (% of Pretreatment) ([2]; Experiment D, 100 mg/kg/day): −62.9 % of Pretreatment
- Body Weight Gain (% of Pretreatment) ([2]; Experiment E, 100 mg/kg/day): +19.1 % of Pretreatment
- HDL-Cholesterol (% of Pretreatment) ([2]; Experiment E, 100 mg/kg/day): +232.1 % of Pretreatment
- Non HDL-Cholesterol (% of Pretreatment) ([2]; Experiment E, 100 mg/kg/day): +7.2 % of Pretreatment
- Triglycerides (% of Pretreatment) ([2]; Experiment E, 100 mg/kg/day): −43.2 % of Pretreatment
- change of non-HDL cholesterol (VLDL plus LDL) (female obese Zucker rats; one week): +10.3%
- increase of HDL cholesterol (female obese Zucker rats; one week): 3.9 fold
- reduction of non-esterified fatty acids (female obese Zucker rats; one week): 52%
- reduction of serum triglycerides (female obese Zucker rats; one week): 68%
- ratio of HDL/non-HDL cholesterol (female obese Zucker rats; one week treatment, pre-treatment 4.2): 14.9
- increase of the ratio of HDL/non-HDL cholesterol (female obese Zucker rats; one week, vs pre-treatment): 3.6 fold
- increase of total serum cholesterol (female obese Zucker rats; one week, vs pre-treatment): 3.3 fold
- increase in body weight (female obese Zucker rats; seven days, vehicle 6.6%): 5.4%
- LDL cholesterol ([3]; after one week of treatment): rapid and significant reduction
- HDL ([3]; seven daily treatments): HDL elevation in all treated mice
